Measured values from US8486979B2, “1,2,4 oxadiazole compounds and methods of use thereof” (AbbVie Inc., priority 2006, dated 2013).

How the values were obtained:
[1] = biological target: T1, human α4β2 nicotinic acetylcholine receptor (Homo sapiens, UniProt P17787+P43681); assay: Calcium flux (FLIPR) assay, HEK-293 cells expressing human α4β2 nAChR; type: cell-based; conditions: for calcium response of partial agonist alone: without PAM; for calcium response of partial agonist co-applied with PAM: co-applied with PAM Compound 1, α4β2 nAChRs
T1 construct: expressed in transfected cells
T1 sequence (P43681 29-627 limits assumed): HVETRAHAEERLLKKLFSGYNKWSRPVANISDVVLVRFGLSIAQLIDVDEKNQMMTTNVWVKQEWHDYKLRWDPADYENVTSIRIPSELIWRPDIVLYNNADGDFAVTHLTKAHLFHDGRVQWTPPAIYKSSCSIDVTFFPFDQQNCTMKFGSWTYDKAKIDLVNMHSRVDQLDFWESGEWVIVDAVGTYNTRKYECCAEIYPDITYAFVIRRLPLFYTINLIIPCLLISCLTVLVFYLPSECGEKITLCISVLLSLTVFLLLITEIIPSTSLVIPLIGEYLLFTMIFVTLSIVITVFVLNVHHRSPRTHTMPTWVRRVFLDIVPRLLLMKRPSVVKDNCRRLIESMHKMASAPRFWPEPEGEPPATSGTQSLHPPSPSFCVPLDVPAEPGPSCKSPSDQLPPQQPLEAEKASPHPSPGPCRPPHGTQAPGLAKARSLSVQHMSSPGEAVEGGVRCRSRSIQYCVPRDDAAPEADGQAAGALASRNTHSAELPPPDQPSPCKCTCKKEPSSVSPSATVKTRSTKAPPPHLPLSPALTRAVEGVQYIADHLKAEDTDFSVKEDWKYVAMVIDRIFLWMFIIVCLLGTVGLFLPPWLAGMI
T1 sequence (P17787 26-502): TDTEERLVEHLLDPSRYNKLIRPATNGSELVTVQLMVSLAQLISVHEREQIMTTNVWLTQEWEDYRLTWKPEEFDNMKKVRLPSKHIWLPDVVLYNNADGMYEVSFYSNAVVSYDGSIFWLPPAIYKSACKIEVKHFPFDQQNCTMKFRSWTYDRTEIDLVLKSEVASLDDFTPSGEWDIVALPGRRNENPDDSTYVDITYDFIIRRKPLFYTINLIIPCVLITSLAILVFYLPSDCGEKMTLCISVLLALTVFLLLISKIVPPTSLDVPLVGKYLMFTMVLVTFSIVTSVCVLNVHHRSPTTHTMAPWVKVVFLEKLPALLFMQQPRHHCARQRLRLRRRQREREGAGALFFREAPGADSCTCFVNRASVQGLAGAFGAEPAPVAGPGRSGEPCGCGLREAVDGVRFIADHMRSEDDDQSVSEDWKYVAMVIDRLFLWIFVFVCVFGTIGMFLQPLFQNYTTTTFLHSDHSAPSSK
Method: (§1) Experimental Procedure: Human embryonic kidney (HEK) 293 cells stably expressing human α4β2 or α3β4 combinations are grown to confluency in 162 cm^2 tissue culture flasks in DMEM media supplemented with 10% FBS and 25 μg/ml zeocin and 200 μg/ml hygromycin B. IMR-32 neuroblastoma cells (ATCC) are grown to confluency in 162 cm^2 tissue culture flasks in minimum essential media supplemented with 10% FBS and 1 mM sodium pyruvate, 1% non-essential amino acids and 1% antibiotic-antimycotic. The cells are then dissociated using cell dissociation buffer and 100-150 μl per well of 3.5×10^5 cells/ml cell suspension (˜50,000-100,000 cells/well) was plated into 96-well black plates (poly-D-lysine precoated) with clear bottom and maintained for 24-48 hours in a tissue culture incubator at 37° C. under an atmosphere of 5% CO2: 95% air. Other clonal cell lines or primary cell cultures that express endogenous α4* nicotinic receptors may also be used in this assay. Calcium flux was measured using calcium-3 assay kit (Molecular Devices, Sunnyvale, Calif.) or fluo-4 (Invitrogen). A stock solution of the dye was prepared by dissolving each vial supplied by the vendor in Hank's balanced salt solution buffer (HBSS) or 150 mM NMDG, 20 mM CaCl2 containing 10 mM HEPES, The stock solution was diluted 1:20 using the same buffer before use. The growth media was removed from the cells. The cells were loaded with 100 μl of the dye per well and incubated at room temperature for up to one hour for HEK 293 clonal stable cell lines or 30 minutes-45 minutes at 37° C. for IMR-32 cells Fluorescence measurements were read simultaneously from all the wells by a Fluorometic Imaging Plate Reader (FLIPR) at an excitation wavelength of 480 nm and an emission wavelength of 520 nm. Baseline fluorescence was measured for the first 6 seconds at which 3× concentrations of modulator/test compounds were added to the cell plate at 50 μl and incubated for five minutes. The fluorescence intensity was captured every second for the first 1 minute followed by every 5 seconds for an additional 4 minutes. This procedure was followed by 50 μl of 4× concentration of agonist and readings were taken for a period of 3-5 minutes as described above. Data was normalized to maximal responses and plotted as a function of concentration. The concentration dependence of changes fluorescence responses was fitted by nonlinear regression analysis (GraphPad Prism, San Diego, Calif.) to obtain EC50 values.
The positive allosteric modulator effects on α4β2 nAChRs exemplified by 3-(3-pyridin-3-yl-1,2,4-oxadiazol-5-yl)benzonitrile (Compound 1) and 3,5-di(pyridin-3-yl)-1,2,4-oxadiazole (Compound 2) can be identified by measuring their potentiating effect to fluorescence changes in intracellular calcium using a fluorimetric plate reader. The potentiating effect of an α4β2 modulator on α4β2 receptor can also be illustrated by concentration responses to α4β2 agonists, for example 5-[(2R)-azetidin-2-ylmethoxy]-2-chloropyridine (Compound A) and (3R)-1-pyridin-3-ylpyrrolidin-3-amine (Compound B), in presence of a fixed concentration of PAM. […] In addition to compound A and B, other known nicotinic agonists can be left-shifted in presence of α4β2 PAM such as […]. […] This could lead to preferential effects of the agonist at the desired subtype, viz., α4β2, without effects at other nicotinic receptor subtypes and thus enhancing in vivo selectivity of the agonist.
The activity (allosteric effects—potentiation of fluorescence responses) ranges are defined as follows; “a” denotes as activity range from 200-400%, “b” denotes an activity range from 150-200%, “c” denotes an activity range from 120-150% and “d” denotes an activity range 90-120%. […]

[2] = biological target: T2, human α3β4 nicotinic acetylcholine receptor (Homo sapiens, UniProt P30926+P32297); assay: Calcium flux (FLIPR) assay, HEK-293 cells expressing human α3β4 nAChR; type: cell-based; conditions: for calcium response of partial agonist co-applied with PAM: co-applied with PAM Compound 1, α3β4 nAChRs
T2 construct: expressed in transfected cells
T2 sequence (P32297 32-505): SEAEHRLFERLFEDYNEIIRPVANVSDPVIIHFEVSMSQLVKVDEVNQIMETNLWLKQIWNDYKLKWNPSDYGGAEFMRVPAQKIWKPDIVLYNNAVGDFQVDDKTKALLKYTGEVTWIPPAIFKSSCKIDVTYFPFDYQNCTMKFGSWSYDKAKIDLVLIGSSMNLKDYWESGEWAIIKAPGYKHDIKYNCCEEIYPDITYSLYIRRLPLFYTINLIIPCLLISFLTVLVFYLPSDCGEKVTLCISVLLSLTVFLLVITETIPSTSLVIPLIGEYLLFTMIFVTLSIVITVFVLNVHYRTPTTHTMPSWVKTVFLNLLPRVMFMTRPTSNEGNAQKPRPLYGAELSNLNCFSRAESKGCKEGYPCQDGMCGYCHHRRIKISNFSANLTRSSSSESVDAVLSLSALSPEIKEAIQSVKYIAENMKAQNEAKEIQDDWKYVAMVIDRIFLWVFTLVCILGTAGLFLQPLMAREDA
T2 sequence (P30926 22-498): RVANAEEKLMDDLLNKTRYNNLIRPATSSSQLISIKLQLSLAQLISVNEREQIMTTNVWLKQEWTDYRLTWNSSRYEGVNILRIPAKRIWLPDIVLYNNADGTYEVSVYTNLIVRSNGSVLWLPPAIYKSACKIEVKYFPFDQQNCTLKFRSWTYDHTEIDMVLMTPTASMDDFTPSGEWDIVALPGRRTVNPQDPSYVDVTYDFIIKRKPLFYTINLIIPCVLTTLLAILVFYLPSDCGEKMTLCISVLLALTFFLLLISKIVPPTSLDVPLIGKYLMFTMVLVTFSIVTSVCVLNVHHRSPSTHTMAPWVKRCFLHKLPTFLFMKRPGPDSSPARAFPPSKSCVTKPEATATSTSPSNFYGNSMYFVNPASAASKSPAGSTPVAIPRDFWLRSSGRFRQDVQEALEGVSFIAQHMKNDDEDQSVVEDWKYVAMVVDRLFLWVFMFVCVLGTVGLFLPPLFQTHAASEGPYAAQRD
Method: as §1, with “A stock solution of the dye was prepared by dissolving each vial supplied by the vendor in Hank's balanced salt solution buffer (HBSS) or 150 mM NMDG, 20 mM CaCl2 containing 10 mM HEPES, The stock solution was diluted 1:20 using the same buffer before use. The growth media was removed from the cells.” left out, “Data was normalized to maximal responses and plotted as a function of concentration.” left out, “values. […]” for “values.”

[3] = tested on: nerve injury induced mechanical allodynia; assay: Chung model of neuropathic pain (L5-L6 spinal nerve ligation, tactile allodynia, von Frey); type: in vivo; conditions: rat; for mechanical paw withdrawal threshold (PWT): i.p.
Method: Animals: Male Sprague-Dawley rats (Charles River, Wilmington, Mass.) weighing 120-150 grams at time of surgery were utilized. These animals were group housed in AAALAC approved facilities at Abbott Laboratories in a temperature-regulated environment with lights on between 0700 and 2000 hours. Food and water was available ad libitum except during testing. All animal handling and experimental protocols were approved by an institutional animal care and use committee (IACUC). All experiments were performed during the light cycle.
Chemicals: 5-[(2R)-Azetidin-2-ylmethoxy]-2-chloropyridine (Compound A, 1-100 nmol/kg) and 3-(3-pyridin-3-yl)-1,2,4-oxadiazol-5-yl)benzonitrile (α4β2 PAM Compound 1, 1-35 μmol/kg, i.p.) was used. Compound A and D was prepared in saline and injected in solution in a volume of 2 ml/kg body weight 30 minutes before behavioral evaluation. Compound 1,3-(3-(pyridin-3-yl)-1,2,4-oxadiazol-5-yl)benzonitrile, was prepared in 30% hydroxybetacyclodextrin and injected in solution in a volume of 4 ml/kg body weight immediately before Compound A. For studies with Compound D, the doses tested ranged from 0.3-30 μmol/kg i.p.
Experimental Procedure: To produce neuropathic pain, tight ligation of the L5-L6 spinal nerves was performed. As previously described in detail by Kim and Chung (Kim S H and Chung J M (1992), Pain 50: 355), following sterilization procedures, a 1.5 cm incision was made dorsal to the lumbosacral plexus. The paraspinal muscles (left side) were separated from the spinous processes, the L5 and L6 spinal nerves isolated, and tightly ligated with 3-0 silk thread. Following hemostasis, the wound was sutured and coated with antibiotic ointment. The rats were allowed to recover and then placed in a cage with soft bedding for 7-14 days before behavioral testing for mechanical allodynia.
Tactile allodynia was measured using calibrated (force; g) von Frey filaments (Stoelting, Wood Dale, Ill.). Briefly, rats were placed into individual plexiglass containers and allowed to acclimate for 15-20 minutes before testing. Withdrawal threshold was determined by increasing and decreasing stimulus intensity and estimated using a Dixon non-parametric test (Chaplan et al., 1994; Chaplan S R, Bach F W, Pogrel J W, Chung J M and Yaksh T L (1994) J Neurosci Methods 53:55-63). Only rats with threshold scores ≦4.5 g were considered allodynic and utilized in further testing. A percent of maximal possible effect (% M.P.E.) of the tested compounds was calculated according to the formula: ([post-drug threshold]−[baseline threshold])/([maximum threshold]−[baseline threshold])×100%, where maximum threshold was equal to 15 g.
Statistical analysis: Analysis of the in vivo data was carried out using analysis of variance. Where appropriate, Bonferroni's Multiple Comparison Test was used for post-hoc analysis. The level of significance was set at p less than 0.05. Data are presented as mean ±S.E.M.

[4] = tested on: emesis; assay: Emesis in ferrets; type: in vivo; conditions: ferret
Method: Fasted male ferrets (Marshall BioResources, North Rose, N.Y.) weighing between 1.0 and 1.7 kg are used to determine the emetic effects. α4β2 PAM (Compound 1) was administered first and thirty minutes later, Compound A was administered at various doses. […] The percentage of animals that experienced emesis at a given dose was recorded.

[5] = biological target: T3, α4β2 nAChR modulator site (Homo sapiens, UniProt P17787+P43681); assay: [3H]-POB binding, membrane enriched fractions from human cortex; conditions: saturation binding, human frontal cortex membranes, 4° C.
T3 construct: membrane enriched fractions from human cortex (ABS Inc., Wilmington, Del.); tissue ABS Inc., Wilmington, Del; host or cells: human cortex (frontal cortex) membrane enriched fractions
T3 sequence (P43681 29-627 limits assumed): as the sequence (P43681 29-627 limits assumed) above
T3 sequence (P17787 26-502): as the sequence (P17787 26-502) above
Method: [^3H]-POB ([^3H]-3-(5-(pyridin-3-yl)-1,2,4-oxadiazol-3-yl)benzonitrile) binding to a α4β2 nAChR modulator site was determined using membrane enriched fractions from human cortex (ABS Inc., Wilmington, Del.). Pellets were thawed at 4° C., washed and resuspended with a Polytron at a setting of 7 in 30 volumes of BSS-Tris buffer (120 mM NaCl, 5 mM KCl, 2 mM CaCl2, 2 mM MgCl2, and 50 mM Tris-Cl, pH 7.4, 4° C.). For saturation binding isotherms, eight concentrations of [^3H]-POB (10-250 nM) in quadruplicate and homogenate containing 100-200 μg of protein were incubated in a final volume of 500 μL for 75 minutes at 4° C. Non-specific binding was determined in the presence of 30 μM unlabeled 3-(5-(pyridin-3-yl)-1,2,4-oxadiazol-3-yl)benzonitrile. Under these conditions, saturable binding of [^3H]-POB binding was measured in membrane enriched fractions from human frontal cortex (FIG. 10). […]
For use in concentration-inhibition assays, seven log-dilution concentrations of test compounds containing 100-200 μg of protein, and 50 nM [^3H]-POB (16.4 Ci/mmol) were incubated in a final volume of 500 μL for 75 minutes at 4° C. in duplicate. Non-specific binding was determined in the presence of 30 μM 3-(5-(pyridin-3-yl)-1,2,4-oxadiazol-3-yl)benzonitrile. […] IC50 values were determined by nonlinear regression in Microsoft® Excel or Assay Explorer. […]

[6] = Compound 1 3.5 μmol/kg with various doses of Compound A

N#Cc1cccc(-c2nc(-c3cccnc3)no2)c1 [Example 1, 3-(3-(pyridin-3-yl)-1,2,4-oxadiazol-5-yl)benzonitrile]
Activity (allosteric effects—potentiation of fluorescence responses) ([1]; α4β2 positive allosteric modulation, calcium fluorescence (FLIPR)): a (“a” denotes as activity range from 200-400%) | effect of PAM on concentration responses to the agonists ([2]; cells expressing α3β4, agonists Compound A and Compound B): unable to affect the concentration responses to the agonists | mechanical paw withdrawal threshold (PWT) ([3]; 10 mg/kg, alone): 3.3 ± 0.4 g | shift of neuropathic pain dose response curve of Compound A [3, 6]: left-shifting the dose response curve of Compound A | efficacy in neuropathic pain, administered alone ([3]; alone): ineffective | shift of emesis dose response curve of Compound A [4, 6]: does not shift the dose response curve of Compound A | emesis ([4]; alone): does not cause emesis

c1ccc2ncc(N3C[C@@H]4CN[C@@H]4C3)cc2c1 [Compound D, (1S,5S)-3-(3,6-diaza-bicyclo[3.2.0]hept-3-yl)-quinoline]
calcium response of partial agonist alone [1]: does not evoke a response | calcium response of partial agonist co-applied with PAM [1]: evoked robust responses | calcium response of partial agonist co-applied with PAM [2]: not at α3β4 nAChRs | efficacy in neuropathic pain, administered alone ([3]; alone): ineffective in reversing neuropathic pain | efficacy in neuropathic pain, co-dosed with α4β2 PAM ([3]; co-dosed with Compound 1): significant relief of neuropathic pain

[3H]c1cncc(-c2nc(-c3cccc(C#N)c3)no2)c1 [Example 135, [^3H]-3-(5-(pyridin-3-yl)-1,2,4-oxadiazol-3-yl)benzonitrile]
Bmax [5]: 2900±500 fmol/mg protein | Kd [5]: 60 ± 16 nM

Clc1ccc(OC[C@H]2CCN2)cn1 [Compound A, 5-[(2R)-azetidin-2-ylmethoxy]-2-chloropyridine]
efficacy in neuropathic pain ([3]; 1 nmol/kg, alone): ineffective | mechanical paw withdrawal threshold (PWT) ([3]; 0.03 μmol/kg, alone): 5.6 ± 0.3 g | efficacy in neuropathic pain ([3]; Compound A 1 nmol/kg combined with varying doses of PAM Compound 1): dose-dependent increase in efficacy

Cc1ncccc1OC[C@@H]1CCCN1 [Compound C, 2-methyl-3-(2-(S)-pyrrolidinylmethoxy)pyridine, reference compound]
calcium response of partial agonist alone [1]: does not evoke a calcium response | calcium response of partial agonist co-applied with PAM [1]: evoked robust responses | calcium response of partial agonist co-applied with PAM [2]: not at α3β4 nAChRs
